{
  "source": "patent US12582652B2",
  "about": "“3-(ethoxydifluoromethyl)-6-(5-fluoro-6-(2,2,2-trifluoroethoxy)pyridin-3-yl)-[1,2,4]triazolo[4,3-a]pyrazine as an ion channel modulator” (Praxis Precision Medicines, Inc., priority 2022, dated 2026)",
  "key": {"[1]": {"experiment": "Preliminary exposure data from first 12 participants (Example 9 study)", "assay_type": "in vivo, human"}, "human NaV1.6 [2]": {"target": "T1, human NaV1.6 (Homo sapiens, UniProt Q9UQD0)", "T1 construct": "stably expressing either human NaV1.6 (NP_055006); expressed in transfected cells", "T1 sequence (Q9UQD0 whole entry)": "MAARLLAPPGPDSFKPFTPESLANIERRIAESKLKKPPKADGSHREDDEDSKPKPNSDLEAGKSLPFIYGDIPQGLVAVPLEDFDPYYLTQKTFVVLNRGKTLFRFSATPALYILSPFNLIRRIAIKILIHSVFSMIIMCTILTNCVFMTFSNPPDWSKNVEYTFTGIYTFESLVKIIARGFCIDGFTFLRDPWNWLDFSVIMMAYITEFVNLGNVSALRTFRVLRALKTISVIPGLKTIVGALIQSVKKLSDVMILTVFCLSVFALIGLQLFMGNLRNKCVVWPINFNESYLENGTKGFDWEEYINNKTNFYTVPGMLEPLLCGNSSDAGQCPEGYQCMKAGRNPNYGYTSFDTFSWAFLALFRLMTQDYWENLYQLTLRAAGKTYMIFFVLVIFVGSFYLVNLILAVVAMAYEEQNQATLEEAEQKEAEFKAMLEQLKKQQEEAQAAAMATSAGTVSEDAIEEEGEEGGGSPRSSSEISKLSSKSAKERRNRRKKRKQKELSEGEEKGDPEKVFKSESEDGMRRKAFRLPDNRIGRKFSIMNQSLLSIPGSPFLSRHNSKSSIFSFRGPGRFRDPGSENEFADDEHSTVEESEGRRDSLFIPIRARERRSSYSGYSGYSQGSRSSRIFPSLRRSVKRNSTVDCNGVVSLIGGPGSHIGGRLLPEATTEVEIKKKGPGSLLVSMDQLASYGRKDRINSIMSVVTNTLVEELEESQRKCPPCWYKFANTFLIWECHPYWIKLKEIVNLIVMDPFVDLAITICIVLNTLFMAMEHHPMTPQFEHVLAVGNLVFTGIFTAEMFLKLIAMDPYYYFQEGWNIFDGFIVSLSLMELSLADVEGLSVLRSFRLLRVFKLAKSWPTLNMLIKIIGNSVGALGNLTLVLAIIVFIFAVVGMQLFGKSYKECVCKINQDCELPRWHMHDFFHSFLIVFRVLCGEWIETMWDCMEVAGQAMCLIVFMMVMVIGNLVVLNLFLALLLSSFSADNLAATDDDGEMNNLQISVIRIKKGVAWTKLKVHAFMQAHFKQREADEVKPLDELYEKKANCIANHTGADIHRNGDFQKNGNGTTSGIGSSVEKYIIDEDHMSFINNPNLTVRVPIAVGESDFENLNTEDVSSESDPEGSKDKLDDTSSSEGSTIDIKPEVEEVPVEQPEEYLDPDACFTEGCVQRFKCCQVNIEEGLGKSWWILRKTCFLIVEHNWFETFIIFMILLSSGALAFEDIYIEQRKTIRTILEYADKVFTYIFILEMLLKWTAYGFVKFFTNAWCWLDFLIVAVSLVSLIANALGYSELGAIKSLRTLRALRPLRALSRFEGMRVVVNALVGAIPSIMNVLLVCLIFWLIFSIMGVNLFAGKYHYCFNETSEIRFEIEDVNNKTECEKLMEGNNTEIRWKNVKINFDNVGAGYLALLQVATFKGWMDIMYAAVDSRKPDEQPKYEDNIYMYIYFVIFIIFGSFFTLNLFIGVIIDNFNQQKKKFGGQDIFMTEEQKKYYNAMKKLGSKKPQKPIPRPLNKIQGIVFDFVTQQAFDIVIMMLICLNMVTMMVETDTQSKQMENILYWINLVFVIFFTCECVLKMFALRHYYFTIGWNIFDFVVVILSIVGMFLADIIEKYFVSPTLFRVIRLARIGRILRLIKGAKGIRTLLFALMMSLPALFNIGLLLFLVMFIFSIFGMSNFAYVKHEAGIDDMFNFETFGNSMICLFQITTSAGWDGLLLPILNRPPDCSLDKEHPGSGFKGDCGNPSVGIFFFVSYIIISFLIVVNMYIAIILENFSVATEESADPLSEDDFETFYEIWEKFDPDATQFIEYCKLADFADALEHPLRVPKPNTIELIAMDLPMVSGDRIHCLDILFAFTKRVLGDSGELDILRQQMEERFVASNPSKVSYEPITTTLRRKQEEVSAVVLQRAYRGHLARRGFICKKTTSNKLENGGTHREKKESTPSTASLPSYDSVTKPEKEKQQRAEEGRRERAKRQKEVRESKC", "experiment": "Peak INa voltage-dependent block (VDB), PatchXpress patch clamp", "assay_type": "cell-based", "description": "(§1) HEK-293 cell lines stably expressing either human NaV1.6 (NP_055006), mouse NaV1.6 (NP_035453.2), or rat NaV1.6 (NP_062139) were used. All cells were seeded at 2×10^6 cells per Nunc T75 flask for 2 days in culture. At time of harvest for assays, the cell counts were approximately 6×10^6 cells. Cells were washed (1×) in DPBS (Hyclone, Cat #SH30028.03) for approximately 30 seconds. 1 mL of 1×0.05% Trypsin-EDTA (GIBCO Cat #25300-054) was added and swirled around to cover the bottom of the flask and was allowed to sit on the cells for approximately 4 minutes (±90% of the cells were lifted by light tapping of the flask). 10 mL of warmed media (DMEM high glucose media Hyclone, SH30022.02 supplemented with 10% Fetal Bovine Serum, 2 mM Sodium Pyruvate, 10 mM HEPES and 400 μg/mL G418) was added to inactivate the trypsin. Cells were triturated until a single cell suspension was achieved. A cell count was performed and cells were aliquoted into a 250 ml centrifuge tube at a concentration of 2×10^5/mL in +30 ml of prewarmed media. The 250 mL centrifuge tube was placed on a rocker in an incubator set at 28° C. and gently rocked for approximately 1 hour to allow cells to recover. Cell aliquots of 5 mL (1×10^6 cells) were placed in a 15 mL centrifuge tube and spun at 100×g for 2 minutes. Supernatant was removed leaving a cell pellet. 100 μL of external recording solution was added to the pellet and triturated 20 times to achieve a single cell suspension and then transferred to a 1.5 mL tube for placement in the PatchXpress® (Molecular Devices).\n(§2) Compound 1 was provided as powder and prepared as 10 mM DMSO stocks in 1 dram glass vials prior to assay. Immediately prior to assay, Compound 1 was diluted with DMSO to 300×, the designated final assay concentration. Assay dilutions (1× concentration) were prepared by pipetting 3 μL of diluted Compound 1 into 897 μL of extracellular solution in a 1 mL glass shell vial. Vials were capped and vortexed until initiation of the PatchXpress® (Molecular Devices) recording protocol.\n(§3) The same intracellular recording solution was used for the persistent and peak INa assays, which contained: 135 mM CsF, 10 mM CsCl, 5 mM NaCl, 10 mM HEPES, 5 mM EGTA at a pH of 7.4 (adjusted with CsOH) and a measured osmolarity of 298 mOsm (adjusted with mannitol). For the persistent INa assay, the external recording solution contained: 135 mM NaCl, 5.4 mM KCl, 5 mM glucose, 2 mM CaCl2), 1 mM MgCl2, 10 mM HEPES, and 200 nM ATX-II (sea anemone toxin, Alomone Labs; Jerusalem, Israel) at a pH of 7.4 (adjusted with NaOH) and a measured osmolarity of 300 mOsm (adjusted with mannitol). For the peak INa assays, the external recording solution contained: 100 mM NaCl, 35 mM NMDG, 5.4 mM KCl, 5 mM glucose, 2 mM CaCl2), 1 mM MgCl2, and 10 mM HEPES at a pH of 7.4 (adjusted with NaOH) and a measured osmolarity of 300 mOsm (adjusted with mannitol).\n(§4) All studies were performed using the PatchXpress® (Molecular Devices) automated patch clamp platform (Molecular Devices) using the whole cell configuration. Recordings were performed at room temperature. Data were collected using Patch Commander software (Molecular Devices) and processed using DataXpress 2.0 (Molecular Devices). Cell acceptance criteria were continuously monitored by custom scripts during the recording. Acceptance criteria for all assays were: baseline peak INa>800 pA, Rseal>200 MΩ, and, where appropriate, persistent INa>100 pA. Compensation was 50% and leak subtraction was not used. Currents were filtered at 5 kHz and digitized at 32.5 kHz. Raccess and Rseal were monitored throughout the recording and cells with Raccess>10 MΩ or Rseal<200 MΩ were terminated automatically by script.\nVoltage Dependent Block (VDB): VDB protocols used a depolarized voltage to keep channels in half-inactivated (resting) states. This allowed equilibrium binding and accurate determination of isoform selectivity (in the absence of biological features)."}, "human NaV1.6 [3]": {"target": "T1, human NaV1.6", "experiment": "ATX-II activated late (persistent) INa block, PatchXpress patch clamp", "assay_type": "cell-based", "description": "as §1, §2, §3, §4\nLate (persistent) current Block: The inhibition of ATX-II activated late current was measured using a 200 ms voltage step to 0 mV. Protocols used low stimulation rates (about 0.1 Hz) and negative potentials (−120 mV) to keep channels in closed (resting) states."}, "[4]": {"test_system": "Scn2a^Q54 transgenic mice", "experiment": "Spontaneous seizure frequency in Scn2aQ54 mouse model of elevated persistent sodium current", "assay_type": "in vivo", "text": "Scn2a^Q54 transgenic mice were generated as described and are maintained as a congenic line on the C57BL/6J (Jax #000664) background (B6.Q54) (Kearney et al., 2001; PMID 11166117). For experiments, F1 generation mice were produced by crossing B6.Q54 hemizygous transgenic males with SJL/J (Jax #000686) females and genotyping for the Scn2a^Q54 transgene. Experimental animals used in this study were male and female postnatal day 18-21 (P18-21) mice, with the majority being P19-P20.\nDosing solutions were freshly formulated on the morning on the study. Dosing solution contained 0.5% methylcellulose with 0.2% Tween-80 was made with 1 mL 10% Tween-80 (in ddH20) and 49 mL 0.5% methylcellulose (in ddH20) either with or without (vehicle) Compound 1 (0.3 mg/kg, 1 mg/kg, 3 mg/kg, or 10 mg/kg). Each animal received a single administration of vehicle or Compound 1 by oral gavage.\nFor seizure monitoring, two mice were placed into a monitoring cage (23 cm×13 cm) and two side-view cameras were placed to record baseline spontaneous seizure activity. […] After the 30-minute recording, mice were administered Compound 1 or vehicle and returned to their home cage. After 30 minutes, the two mice were returned to the monitoring cage and recorded for an additional 30 minutes to assess post-treatment seizure activity. The number of focal motor seizures with forelimb clonus and repetitive movements lasting 1-5 seconds, and generalized tonic-clonic seizures (GTCS) with rearing and falling lasting approximately 1 minute were counted. Seizures were scored offline by an observer blinded to treatment and pre/post status of the video file.\nThe numbers of seizures before and after treatment were counted for each animal by a reviewer blinded to treatment and pre/post status of the video record. Mice that had less than three seizures or more than 35 seizures during the baseline period were excluded from the analysis as pre-defined in the study design. Statistical analysis was conducted using two-way repeated measures ANOVA and Sidak's multiple comparisons, with p<0.05 considered statistically significant (GraphPad Prism 8.4). Change in average seizure frequency was determined by averaging each group and then computing relative change as [(avg. post−avg. pre)/avg. pre], expressed as a percentage."}},
  "note": "Entries after “also recorded” stand apart in the source; their conditions may differ.",
  "data": [
    {"smiles": "CCOC(F)(F)c1nnc2cnc(-c3cnc(OCC(F)(F)F)c(F)c3)cn12", "note": "[Compound 1, 3-(ethoxydifluoromethyl)-6-(5-fluoro-6-(2,2,2-trifluoroethoxy)pyridin-3-yl)-[1,2,4]triazolo[4,3-a]pyrazine]", "values": [
      {"measurement": "Compound 1 exposures on Day 1 (after single dose)", "setting": "[1]", "result": "above therapeutic range; also recorded: above predicted therapeutic levels"},
      {"measurement": "exposure after 28 days of once daily dosing and auto-titration", "setting": "[1]", "result": "approaching steady-state; also recorded: approaches steady state"},
      {"measurement": "Ratio to Pers. INa (Peak INa VDB / persistent INa)", "setting": "human NaV1.6 [2]; hNaV1.6", "result": 2.2},
      {"measurement": "IC50", "setting": "human NaV1.6 [2]; hNaV1.6, half-inactivated (V1/2)", "result": 317, "unit": "nM"},
      {"measurement": "IC50", "setting": "human NaV1.6 [3]; hNaV1.6, ATX-II-evoked, holding −120 mV", "result": 141, "unit": "nM"},
      {"measurement": "preference for persistent INa relative to peak INa", "setting": "human NaV1.6 [3]; hNaV1.6, all assay conditions", "result": "preference for persistent INa"},
      {"measurement": "mice showing seizures after dosing", "setting": "[4]; 10 mg/kg", "result": "no mice showing any seizures"},
      {"measurement": "seizure frequency compared to pre-treatment baseline", "setting": "[4]; 1, 3 and 10 mg/kg p.o., 30 min after treatment", "result": "significant reduction"},
      {"measurement": "protection from spontaneous seizures (FIG. 14A)", "setting": "[4]; Scn2a Q54 DEE mouse model", "result": "completely block seizures"},
      {"measurement": "reduction in seizure frequency", "setting": "[4]; doses of 1 mg/kg and above", "result": 50, "unit": "%"}
    ]}
  ]
}
